Numbers after ± are expanded uncertainties.
Experiment: xn = mol fraction of the nth substance listed
Details: 298.15 K, 101.3 kPa, Crystal

## [O-2].[O-2].[Th+4] [thorium dioxide] + [O-2].[O-2].[U+4]
From pellet mass and volume, x1 = 0.3
  mass density: 8570 ± 1900 kg/m3
From pellet mass and volume, x1 = 0.5
  mass density: 8600 ± 1700 kg/m3
From pellet mass and volume, x1 = 0.6
  mass density: 8410 ± 1700 kg/m3
From pellet mass and volume, x1 = 0.7
  mass density: 9020 ± 1800 kg/m3
From pellet mass and volume, x1 = 0.8
  mass density: 9240 ± 1800 kg/m3
From pellet mass and volume, x1 = 0.9
  mass density: 8800 ± 1800 kg/m3
From pellet mass and volume, x1 = 1
  mass density: 9390 ± 1900 kg/m3
X-ray diffraction, x1 = 0.3
  mass density: 10810 ± 210 kg/m3
X-ray diffraction, x1 = 0.5
  mass density: 10810 ± 140 kg/m3
X-ray diffraction, x1 = 0.6
  mass density: 10640 ± 130 kg/m3
X-ray diffraction, x1 = 0.7
  mass density: 10480 ± 100 kg/m3
X-ray diffraction, x1 = 0.8
  mass density: 10350 ± 70 kg/m3
X-ray diffraction, x1 = 0.9
  mass density: 10170 ± 50 kg/m3
X-ray diffraction, x1 = 1
  mass density: 10000 ± 30 kg/m3
buoyancy, x1 = 0.3
  mass density: 8960 ± 1900 kg/m3
buoyancy, x1 = 0.5
  mass density: 8780 ± 1800 kg/m3
buoyancy, x1 = 0.6
  mass density: 8690 ± 1800 kg/m3
buoyancy, x1 = 0.7
  mass density: 9290 ± 1900 kg/m3
buoyancy, x1 = 0.8
  mass density: 9590 ± 1900 kg/m3
buoyancy, x1 = 0.9
  mass density: 9210 ± 1800 kg/m3
buoyancy, x1 = 1
  mass density: 9430 ± 1900 kg/m3

From the NIST ThermoML archive (doi:10.1016/j.tca.2017.04.014)
